Measurements from patent US8178579B2, “Dioxanes and uses thereof” (President and Fellows of Harvard College, priority 2001, dated 2012).
Entries after “also recorded” stand apart in the source; their conditions may differ.

Assays:
[1] = tested on: α-tubulin; test: total and tyrosinated α-tubulin levels in cells; type: cell-based; conditions: tubacin 2 μM, 4 h
Procedure: (§1) Detection of acetylated α-tubulin and acetylated histones by immunofluorescence was performed as described in Example 6 above. For determining microtubule stability, A549 cells were treated as indicated, fixed in glutaraldehyde, and stained for acetylated α-tubulin and total α-tubulin in antibody dilution buffer (ADB, Tris-buffered saline (TBS), 0.15 M NaCl, 0.02 M Tris-Cl, pH 7.4, with 2% bovine serum albumin and 0.1% Triton-X 100). For cold-depolymerization, cells were incubated at 4° C. or 37° C. for an additional 90 minutes before fixation. […] For co-localization experiments, biotubacin (50 μM) treated A549 cells were fixed in 3.7% formaldehyde in TBS and processed as for detecting acetylated α-tubulin (See Example 6 above) with biotubacin detected using streptavidin-TR (1:500). HDAC6 was detected using a rabbit polyclonal antibody (1:250-1:750; C.M.G., unpublished data) under the conditions used to detect acetylated α-tubulin (See Example 6 above). Filamentous actin in HT-1080 cells was detected using TR-conjugated phalloidin (1 μg/mL), and depolymerized actin using FITC-conjugated deoxyribonuclease (10 μg/mL), following fixation in 3.7% formaldehyde in TBS. p58 (1:100) in NIH-3T3 cells was detected after fixation in 3.7% formaldehyde in TBS. […]

[2] = tested on: rat hippocampal neurons and astrocytes; test: cultured rat hippocampal neurons and astrocytes: viability, acetylated α-tubulin, synaptotagmin; type: cell-based
Procedure: All cells were cultured at 37° C. in a humidified incubator supplemented with 5% carbon dioxide. Human A549 lung carcinoma cells, Human HT-1080 fibrosarcoma cells, BSC-1 African green monkey kidney epithelial cells (all from American Tissue Culture Collection) were cultured in Dulbecco's modified eagle medium (DMEM) supplemented with 10% fetal bovine serum, 100 units/mL penicillin G sodium, 100 μg/mL streptomycin sulfate, and 2 mM L-glutamine (DMEM+). Human TAg Jurkat cells and mouse ROSA26 embryonic stem cells (gift of E. Roberston, Harvard University) were cultured as described (12). Mouse NIH-3T3 wild-type (Neo), HDAC6, HDAC6 double mutant, and HDAC1 overexpressing cells (gift from C. Hubbert, Duke University) were cultured as described (C. Hubbert et al., Nature 417, 455 (2002)1). Hippocampal neurons were dissociated from 1-day old rats and grown in culture using methods as described (E. N. Star, D. J. Kwiatkowski and V. N. Murthy, Nat. Neurosci. 5, 239 (2002)). All animal experiments were approved by Harvard University's standing committee on the use of animals in research and training.
as §1, with “above.” for “above. For determining microtubule stability, A549 cells were treated as indicated, fixed in glutaraldehyde, and stained for acetylated α-tubulin and total α-tubulin in antibody dilution buffer (ADB, Tris-buffered saline (TBS), 0.15 M NaCl, 0.02 M Tris-Cl, pH 7.4, with 2% bovine serum albumin and 0.1% Triton-X 100). For cold-depolymerization, cells were incubated at 4° C. or 37° C. for an additional 90 minutes before fixation.”

`O=C(CCCCCCC(=O)Nc1ccc([C@@H]2OC(c3ccc(CO)cc3)C[C@H](CSc3nc(-c4ccccc4)c(-c4ccccc4)o3)O2)cc1)NO` (some centres unmarked) [tubacin] was tested, and the “level of total α-tubulin” value [1] was “No effect of tubacin (2 μM) treatment (4 h) on the levels of α-tubulin; also recorded: did not affect the level of total α-tubulin or the level of α-tubulin containing a carboxy-terminal tyrosine”, the “level of tyrosinated α-tubulin” value [1] was “No effect of tubacin (2 μM) treatment (4 h) on the levels of tyrosinated tubulin; also recorded: did not affect the level of total α-tubulin or the level of α-tubulin containing a carboxy-terminal tyrosine” and the “viability and morphology of neurons and astrocytes” value ([2]; 7-day old cultures: greater than 5 μM (10 μM, 48 h), 10-day old cultures: 1-2 μM, 96 h) was “decreased the viability and staining with synaptotagmin; also recorded: had no affect on the viability of 10-day old neurons and astrocytes; also recorded: caused morphological changes and cell death; also recorded: did not cause a significant decrease in the number of 10-day old rat hippocampal neurons or astrocytes”. For the same compound, the “α-tubulin acetylation in neurons and astrocytes” value ([2]; tubacin 1 μM 96 h or 10 μM 48 h, niltubacin 5 μM) was “increased the acetylation of α-tubulin; also recorded: increased α-tubulin acetylation in both cell types” and the “synaptotagmin staining / synapses” value ([2]; tubacin at least 1 μM for four days or 10 μM 48 h, niltubacin 5 μM) was “decreased the viability and staining with synaptotagmin; also recorded: had fewer synapses when compared to control cells”.
